Series [1] is described as follows: The drug is tested on Z-027 corresponding to metagenome with ENA study accession number: PRJEB37062 and ENA sample accession number: ERS12561826 for biotransformation under anaerobic condition. The drug concentrations were measured over 9 timepoints collected between 0 and 24 hours of incubation by liquid-chromatography-coupled mass spectrometry (LC–MS). Conditions: 2 µM.

The nature of series [2]: The drug is tested on Z-013 corresponding to rabbit gut metagenome with ENA study accession number: PRJEB37062 and ENA sample accession number: ERS12561813 for biotransformation under anaerobic condition. The drug concentrations were measured over 9 timepoints collected between 0 and 24 hours of incubation by liquid-chromatography-coupled mass spectrometry (LC–MS). To be noted: 2 µM.

Series [3] is described as follows: The drug is tested on Z-024 corresponding to pig gut metagenome with ENA study accession number: PRJEB37062 and ENA sample accession number: ERS12561823 for biotransformation under anaerobic condition. The drug concentrations were measured over 9 timepoints collected between 0 and 24 hours of incubation by liquid-chromatography-coupled mass spectrometry (LC–MS). To be noted: 2 µM.

Series [4] in a line: The drug is tested on WLS-038 corresponding to human gut metagenome with ENA study accession number: PRJEB37062 and ENA sample accession number: ERS12561745 for biotransformation under anaerobic condition. The drug concentrations were measured over 9 timepoints collected between 0 and 24 hours of incubation by liquid-chromatography-coupled mass spectrometry (LC–MS). Conditions: 2 µM.

A short description of series [5]: The drug is tested on Z-002 corresponding to rabbit gut metagenome with ENA study accession number: PRJEB37062 and ENA sample accession number: ERS12561802 for biotransformation under anaerobic condition. The drug concentrations were measured over 9 timepoints collected between 0 and 24 hours of incubation by liquid-chromatography-coupled mass spectrometry (LC–MS). Conditions: 2 µM.

The conditions of series [6]: human gut metagenome, 24 h, 2 µM.
For series [7] the following is noted: human gut metagenome, 24 h, 2 µM. This is another data set of the same source.
For series [8] the following is noted: human gut metagenome, 24 h, 2 µM. This is another data set of the same source.
The conditions of series [9]: human gut metagenome, 24 h, 2 µM. The source holds these as a separate data set.
For series [10] the following is noted: human gut metagenome, 24 h, 2 µM. The source holds these as a separate data set.
The nature of series [11]: The drug is tested on Z-022 corresponding to mouse gut metagenome with ENA study accession number: PRJEB37062 and ENA sample accession number: ERS12561821 for biotransformation under anaerobic condition. The drug concentrations were measured over 9 timepoints collected between 0 and 24 hours of incubation by liquid-chromatography-coupled mass spectrometry (LC–MS). To be noted: 2 µM.

The conditions of series [12]: human gut metagenome, 24 h, 2 µM. This is another data set of the same source.
A short description of series [13]: The drug is tested on Z-025 corresponding to rabbit gut metagenome with ENA study accession number: PRJEB37062 and ENA sample accession number: ERS12561824 for biotransformation under anaerobic condition. The drug concentrations were measured over 9 timepoints collected between 0 and 24 hours of incubation by liquid-chromatography-coupled mass spectrometry (LC–MS). Conditions: 2 µM.

The nature of series [14]: The drug is tested on WLS-007 corresponding to human gut metagenome with ENA study accession number: PRJEB37062 and ENA sample accession number: ERS12561742 for biotransformation under anaerobic condition. The drug concentrations were measured over 9 timepoints collected between 0 and 24 hours of incubation by liquid-chromatography-coupled mass spectrometry (LC–MS). Conditions: 2 µM.

The conditions of series [15]: human gut metagenome, 24 h, 2 µM. This is another data set of the same source.
Series [16] can be described thus: The drug is tested on Z-028 corresponding to mouse gut metagenome with ENA study accession number: PRJEB37062 and ENA sample accession number: ERS12561827 for biotransformation under anaerobic condition. The drug concentrations were measured over 9 timepoints collected between 0 and 24 hours of incubation by liquid-chromatography-coupled mass spectrometry (LC–MS). To be noted: 2 µM.

The nature of series [17]: The drug is tested on WLS-027 corresponding to human gut metagenome with ENA study accession number: PRJEB37062 and ENA sample accession number: ERS12561744 for biotransformation under anaerobic condition. The drug concentrations were measured over 9 timepoints collected between 0 and 24 hours of incubation by liquid-chromatography-coupled mass spectrometry (LC–MS). To be noted: 2 µM.

Series [18] is described as follows: The drug is tested on WLS-052 corresponding to human gut metagenome with ENA study accession number: PRJEB37062 and ENA sample accession number: ERS12561747 for biotransformation under anaerobic condition. The drug concentrations were measured over 9 timepoints collected between 0 and 24 hours of incubation by liquid-chromatography-coupled mass spectrometry (LC–MS). To be noted: 2 µM.

A short description of series [19]: The drug is tested on Z-005 corresponding to metagenome with ENA study accession number: PRJEB37062 and ENA sample accession number: ERS12561805 for biotransformation under anaerobic condition. The drug concentrations were measured over 9 timepoints collected between 0 and 24 hours of incubation by liquid-chromatography-coupled mass spectrometry (LC–MS). To be noted: 2 µM.

Series [20] can be described thus: The drug is tested on Z-007 corresponding to rat gut metagenome with ENA study accession number: PRJEB37062 and ENA sample accession number: ERS12561807 for biotransformation under anaerobic condition. The drug concentrations were measured over 9 timepoints collected between 0 and 24 hours of incubation by liquid-chromatography-coupled mass spectrometry (LC–MS). To be noted: 2 µM.
Also: call rule not given here.

With `CN1CCc2cccc3c2[C@H]1Cc1ccc(O)c(O)c1-3` [APOMORPHINE], the “Bacterial Biotransformation” value is “Compound NOT metabolized” in series [1]; “Compound metabolized” in series [2]; “Compound metabolized” in series [3]; “Compound NOT metabolized” in series [4]; “Compound NOT metabolized” in series [5]; “Compound NOT metabolized” in series [6]. The “Bacterial Biotransformation” value in series [7], in series [8], in series [9], in [10], in [11] and in series [12] was “Compound NOT metabolized” throughout. For the same molecule, the results for the “Bacterial Biotransformation” value in [13], in [14] and in series [15] were “Compound metabolized”, “Compound NOT metabolized” and “Compound NOT metabolized”, respectively.

For `C#C[C@]1(O)CC[C@H]2[C@@H]3CCC4=Cc5oncc5C[C@]4(C)[C@H]3CC[C@@]21C` [DANAZOL], the “Bacterial Biotransformation” value in [1] was “Compound metabolized”; in series [3], “Compound metabolized”; in [4], “Compound metabolized”; in [6] it was “Compound NOT metabolized”; in [16], “Compound metabolized”; in series [7] it was “Compound metabolized”. The “Bacterial Biotransformation” value in [9], in series [11], in [17], in series [18], in [13] and in series [14] was “Compound metabolized” throughout. For the same molecule, the “Bacterial Biotransformation” value in [15] was “Compound metabolized”.

In the case of `CCN(CC)C(=O)/C(C#N)=C/c1cc(O)c(O)c([N+](=O)[O-])c1` [ENTACAPONE], the “Bacterial Biotransformation” value in [1], in [2], in series [3], in series [5], in series [16] and in series [7] was “Compound metabolized” each time. Besides, the “Bacterial Biotransformation” value in series [19], in series [9], in series [11], in [20] and in series [13] was “Compound metabolized” throughout.

As for `CC(C)OC(=O)C(C)(C)Oc1ccc(C(=O)c2ccc(Cl)cc2)cc1` [FENOFIBRATE], the “Bacterial Biotransformation” value in series [1] was “Compound metabolized”; in series [2], “Compound metabolized”; in series [3], “Compound NOT metabolized”; in series [4], “Compound NOT metabolized”; in [5], “Compound metabolized”; in series [6], “Compound NOT metabolized”. Also, the “Bacterial Biotransformation” value in series [16] is listed as “Compound metabolized”; in series [7] it was “Compound metabolized”; in series [19], “Compound metabolized”; in [8], “Compound NOT metabolized”; in [9], “Compound NOT metabolized”; in series [10] it was “Compound NOT metabolized”. In addition, the “Bacterial Biotransformation” value in series [11] was “Compound NOT metabolized”; in series [17], “Compound metabolized”; in series [18], “Compound NOT metabolized”; in [20] it was “Compound metabolized”; in series [12], “Compound NOT metabolized”; in series [13], “Compound metabolized”. Also, the “Bacterial Biotransformation” value in [15] was “Compound metabolized”.

Turning to `COc1c2occc2cc2ccc(=O)oc12` [METHOXSALEN], the “Bacterial Biotransformation” value in series [1], in series [2], in [3], in series [4], in series [5] and in series [6] was “Compound metabolized” in each case. The “Bacterial Biotransformation” value in series [16] is recorded as “Compound metabolized”; in series [7] it was “Compound NOT metabolized”; in series [19], “Compound metabolized”; in series [8] it was “Compound metabolized”; in [9], “Compound metabolized”; in series [10], “Compound metabolized”. Also, the “Bacterial Biotransformation” value in series [11] is listed as “Compound NOT metabolized”; in [17], “Compound metabolized”; in series [18], “Compound metabolized”; in [20], “Compound NOT metabolized”; in series [12], “Compound metabolized”; in series [13], “Compound metabolized”.

Take `CN(C)CCc1c[nH]c2ccc(Cn3cncn3)cc12.O=C(O)c1ccccc1` [RIZATRIPTAN BENZOATE]: the “Bacterial Biotransformation” value in series [1], in series [2], in series [3], in [4], in series [5] and in series [6] was “Compound NOT metabolized” throughout. Also, the “Bacterial Biotransformation” value in [16], in [19], in series [8], in series [9], in series [10] and in series [11] was “Compound NOT metabolized” in each case. Moreover, the “Bacterial Biotransformation” value in series [17], in series [18], in series [20], in series [12], in series [13] and in series [14] was “Compound NOT metabolized” throughout. Moreover, the “Bacterial Biotransformation” value in series [15] is reported as “Compound NOT metabolized”.

The values are drawn from ChEMBL document CHEMBL5724914, “Linking interpersonal differences in gut microbiota composition and drug biotransformation activity” (2024).
